Data published in ChEMBL document CHEMBL1201862, “PubChem BioAssay data set” (2004).
The source made the active and inactive calls.

How the values were obtained:
HEK293 [1] = experiment: NOD2 signaling inhibitors in MDP-stimulated cells, cell-based, uHTS, luminescence (AID 2001); format: functional; conditions: Homo sapiens
HEK293 [2] = experiment: cells; format: functional, cell-based; conditions: Homo sapiens
HEK293 [3] = experiment: NOD1 signaling inhibitors, primary screen, cell-based, luminescence, uHTS (AID 1578); format: functional; conditions: Homo sapiens
[4] = inhibitors of firefly luciferase expression or activity, dose response, H4 neuroglioma cells, luminescence (AID 1990); format: functional, cell-based
HEK293 [5] = experiment: cells; format: functional, cell-based; conditions: Homo sapiens; remark: listed apart in the source
[6] = biological target: Nucleotide-binding oligomerization domain-containing protein 2 (Homo sapiens, UniProt Q9HC29); experiment: NOD2 signaling inhibitors, cell-based, luminescence, uHTS, HEK293 (AID 1566); format: functional
[7] = Luminescence Cell-Based Dose Response HTS to Identify Inhibitors of 5'UTR Stem-Loop Driven Prion Protein mRNA Translation in H4 Neuroglioblastoma Cells. [Related pubchem assays: 1827 (Project Summary), 1813 (Primary HTS)]; format: functional
[8] = inhibitors of SNCA 5'UTR-driven reporter translation, confirmation, H4 neuroglioma cells, luminescence (AID 1988); format: functional, cell-based
HEK293 [9] = experiment: cells; format: functional, cell-based; conditions: Homo sapiens; remark: listed apart in the source
[10] = biological target: Voltage-dependent T-type calcium channel subunit alpha-1H (Homo sapiens, UniProt O95180); format: functional;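 further: channel activity triggered by adding a high calcium stimulation buffer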
Troponin, cardiac muscle = Troponin, cardiac muscle (Homo sapiens, UniProt P19429+P45379+P63316); experiment: Fluorescence-based biochemical high throughput dose response assay for activators of the calcium sensitivity of cardiac Regulated Thin Filaments (RTF). [Related pubchem assays (depositor defined):AID493008, AID493018, AID504382, AID504383]; format: protein-complex assay
Prothrombin = Prothrombin (Homo sapiens, UniProt P00734); experiment: Thrombin 1536 HTS Dose Response Confirmation. [Related pubchem assays: 1046 (Thrombin 1536 HTS; hits were confirmed in this assay)]; format: functional
Coagulation factor XII = biological target: T1, Coagulation factor XII (Homo sapiens, UniProt P00748); format: functional;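 further: activated factor XIIa alpha cleaving a fluorogenic AMC peptide substrate; inhibitor potency from loss of enzyme activity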
T1 sequence (P00748 whole entry): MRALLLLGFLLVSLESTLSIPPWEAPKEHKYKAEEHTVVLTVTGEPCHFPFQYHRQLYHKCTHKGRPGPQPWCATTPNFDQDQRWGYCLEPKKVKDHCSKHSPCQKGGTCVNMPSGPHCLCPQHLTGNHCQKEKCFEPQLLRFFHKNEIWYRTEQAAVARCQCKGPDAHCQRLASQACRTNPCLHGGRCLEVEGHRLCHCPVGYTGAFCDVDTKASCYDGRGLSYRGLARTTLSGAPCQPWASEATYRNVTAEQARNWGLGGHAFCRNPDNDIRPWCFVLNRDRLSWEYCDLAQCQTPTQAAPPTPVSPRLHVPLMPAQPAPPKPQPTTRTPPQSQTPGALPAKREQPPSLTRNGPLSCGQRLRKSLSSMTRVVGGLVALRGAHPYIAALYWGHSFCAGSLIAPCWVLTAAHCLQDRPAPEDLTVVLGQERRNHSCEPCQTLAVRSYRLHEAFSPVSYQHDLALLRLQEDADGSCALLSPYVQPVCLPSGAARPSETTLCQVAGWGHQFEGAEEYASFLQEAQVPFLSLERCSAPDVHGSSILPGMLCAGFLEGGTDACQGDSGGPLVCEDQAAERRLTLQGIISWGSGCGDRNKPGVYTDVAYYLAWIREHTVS

[11] = cytotoxicity in HEK-293T cells, dose response, cytotoxicity control for BCR NF-kB inhibitor project, luminescence, B-cell screen hits (AID 489021); format: functional, cell-based;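 further: HEK-293T cells carrying an NF-kB luciferase reporter; cells exposed to compound for about 14 hours before viability readout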
[12] = growth suppression of beta-catenin-knockout colon cells, dose response, cell-based, HCT116, human colon tumor (AID 1045); format: functional;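 further: HCT116 colon tumor cells with beta catenin knocked out; cells exposed to compound for 60 hours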
[13] = growth suppression of PTEN-null colon cells, dose response, cell-based, HCT116 PTEN knockout (AID 1047); format: functional;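 further: HCT116 colon tumor cells with PTEN knocked out; cells exposed to compound for 60 hours before readout; potency for loss of cell viability measured by luminescence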
[14] = biological target: T2, RNA-binding protein pos-1 (Caenorhabditis elegans, UniProt G5EF15); experiment: inhibitors of POS-1/mex-3 RNA binding, dose response, biochemical, fluorescence polarization (AID 1964);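 further: purified POS-1 fused to maltose binding protein made in E. coli; potency of compounds blocking POS-1 binding to fluorescent RNA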
T2 sequence (G5EF15 whole entry): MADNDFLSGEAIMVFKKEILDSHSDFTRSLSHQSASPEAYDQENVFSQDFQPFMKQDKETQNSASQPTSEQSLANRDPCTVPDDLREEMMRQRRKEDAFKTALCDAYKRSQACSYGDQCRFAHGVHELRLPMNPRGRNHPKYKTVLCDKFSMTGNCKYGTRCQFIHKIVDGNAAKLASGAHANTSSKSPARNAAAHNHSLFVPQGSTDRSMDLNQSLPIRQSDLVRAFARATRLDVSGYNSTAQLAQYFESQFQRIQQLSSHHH

[15] = biological target: T3, Zinc finger protein mex-5 (Caenorhabditis elegans, UniProt Q9XUB2); experiment: MEX-5/TCR-2 RNA interaction inhibitors, dose response, biochemical, C. elegans, fluorescence polarization (AID 1960)
T3 sequence (Q9XUB2 whole entry): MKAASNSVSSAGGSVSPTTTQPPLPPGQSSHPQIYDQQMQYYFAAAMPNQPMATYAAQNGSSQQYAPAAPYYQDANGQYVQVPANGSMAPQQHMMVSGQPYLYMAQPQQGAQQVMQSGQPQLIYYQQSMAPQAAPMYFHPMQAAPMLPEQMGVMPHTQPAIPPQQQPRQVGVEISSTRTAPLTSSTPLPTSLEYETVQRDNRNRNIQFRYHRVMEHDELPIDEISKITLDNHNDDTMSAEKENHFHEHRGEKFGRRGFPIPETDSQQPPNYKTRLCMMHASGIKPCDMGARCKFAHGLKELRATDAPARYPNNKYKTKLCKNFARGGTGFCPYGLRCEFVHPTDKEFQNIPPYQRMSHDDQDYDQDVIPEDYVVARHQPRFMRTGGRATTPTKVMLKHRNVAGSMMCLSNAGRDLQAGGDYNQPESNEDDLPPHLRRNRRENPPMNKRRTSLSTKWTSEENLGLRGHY

Compound: COc1ccccc1C(=O)NCc1ccc(-c2nc3ccccc3s2)cc1
- IC50 (HEK293 [1]): 6.82 µM (inactive)
- IC50 (HEK293 [2]): 1.93 µM (active)
- EC50 (HEK293 [3]): 6.77 µM (active)
- EC50 [4]: 15.2 µM (active)
- IC50 (HEK293 [5]): > 20 µM (inactive)
- EC50 [6]: 6.29 µM (active)
- EC50 [7]: > 120 µM (not active)
- EC50 [8]: 0.312 µM (active)
- IC50 (HEK293 [9]): > 20 µM (inactive)

Compound: O=C(NC1CCCCC1)C(c1ccccc1)N(Cc1ccc2c(c1)OCO2)C(=O)c1cnsn1 (stereo not given)
- EC50 [10]: 4.5 µM (active)

Compound: O=C(c1ccccc1)c1cccc(NC(=O)c2ccc(Br)o2)c1
- EC50 [10]: 7.3 µM (active)

Compound: N=c1n(Cc2ccccc2)c2ccccc2n1CC(O)c1ccco1 (stereo not given)
- EC50 (Troponin, cardiac muscle): > 71.5 µM (inactive)

Compound: Cc1ccc(S(=O)(=O)Nc2cccnc2Oc2ccc(Cl)cc2)cc1
- IC50 (Prothrombin): > 50 µM (not active)
- IC50 (Coagulation factor XII): > 50 µM (inactive)

Compound: COc1ccc(NC(=O)c2cc3c(Cl)nc4ccccc4c3s2)cc1OC
- IC50 [11]: > 80 µM (inactive)
- EC50 [12]: 48.8 µM (active)
- EC50 [13]: 58.6 µM (active)

Compound: Cc1ccccc1Nc1nc(Cl)c(C=O)s1
- EC50 [14]: > 300 µM (not active)
- IC50 [11]: > 80 µM (inactive)
- EC50 [15]: > 300 µM (not active)
